The target in one assay is RICK (Homo sapiens, UniProt O43353). Put plainly: General kinase assay protocol (33P-ATP, MBP substrate, filter plate): RICK. Format: biochemical. The note with it: inhibition at concentration 10 μM; read-out: Inhibitory effect on Target RICK. The source says:
(§1) General Assay Protocol for all Kinases
(§2) (For UL97 a special UL97 kinase assay was used as described below.)

A further assay deals with CDK9 (Homo sapiens, UniProt P50750). Put plainly: General kinase assay protocol (33P-ATP, MBP substrate, filter plate): CDK9. It counts as biochemical. As to conditions: inhibition at concentration 10 μM; read-out: Inhibitory effect on Target CDK9. On the procedure: as §1, §2
Chain of CDK9 (P50750 whole entry, species assumed): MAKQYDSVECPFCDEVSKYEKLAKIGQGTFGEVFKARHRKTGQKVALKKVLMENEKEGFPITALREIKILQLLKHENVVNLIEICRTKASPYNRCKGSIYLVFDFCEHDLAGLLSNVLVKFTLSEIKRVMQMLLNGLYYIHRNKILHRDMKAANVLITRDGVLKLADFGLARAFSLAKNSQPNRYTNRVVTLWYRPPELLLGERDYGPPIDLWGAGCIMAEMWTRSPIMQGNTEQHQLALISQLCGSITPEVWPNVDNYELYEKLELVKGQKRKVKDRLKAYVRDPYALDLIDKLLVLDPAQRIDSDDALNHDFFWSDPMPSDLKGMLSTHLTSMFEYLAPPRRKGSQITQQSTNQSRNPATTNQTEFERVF
Chain of CDK9 (O60563 whole entry partner, species assumed): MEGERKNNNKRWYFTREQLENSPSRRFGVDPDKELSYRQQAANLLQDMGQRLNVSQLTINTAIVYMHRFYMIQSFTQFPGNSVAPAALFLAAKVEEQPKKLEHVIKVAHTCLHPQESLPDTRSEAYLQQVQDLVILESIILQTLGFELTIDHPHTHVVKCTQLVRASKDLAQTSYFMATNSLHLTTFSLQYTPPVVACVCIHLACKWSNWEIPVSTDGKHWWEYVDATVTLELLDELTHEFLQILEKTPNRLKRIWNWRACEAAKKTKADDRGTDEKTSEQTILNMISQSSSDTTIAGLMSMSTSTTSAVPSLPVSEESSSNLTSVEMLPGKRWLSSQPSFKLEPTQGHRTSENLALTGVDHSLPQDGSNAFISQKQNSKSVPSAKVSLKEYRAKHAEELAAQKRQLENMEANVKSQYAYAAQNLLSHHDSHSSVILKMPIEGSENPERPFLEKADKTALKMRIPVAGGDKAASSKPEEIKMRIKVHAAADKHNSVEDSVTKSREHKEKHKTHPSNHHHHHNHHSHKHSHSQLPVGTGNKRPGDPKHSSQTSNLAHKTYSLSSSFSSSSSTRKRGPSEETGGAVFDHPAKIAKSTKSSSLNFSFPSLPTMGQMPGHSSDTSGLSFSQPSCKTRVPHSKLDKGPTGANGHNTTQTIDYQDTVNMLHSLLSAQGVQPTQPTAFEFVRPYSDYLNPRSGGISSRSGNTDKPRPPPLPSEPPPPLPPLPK
(§3) Final Assay Concentrations:
(§4) • 1) Add 8 μl 50 μM MBP in Reaction Buffer to each well of Assay Plate • 2) Add 10 μl 500 mM EDTA in H2O to C− wells • 3) Add 8 μl 62.5 μCi/ml Adenosine 5′-[γ-^33P]triphosphate+5 μM ATP in Reaction Buffer to each well • 4) Add 8 μl 5 fold concentrated inhibitor in 5% DMSO in Reaction Buffer to each well except to C− and C+ wells • 5) Add 8 μl 5% DMSO in Reaction Buffer to C− and C+wells • 6) Add 8 μl 5 fold concentrated kinase in Reaction Buffer to each well • 7) Incubate 1 hr at room temperature • 8) Add 10 μl 50 mM EDTA in H2O to each well except to C− wells • 9) Prepare MAPH plates by adding 200 μl 0.75% H3PO4 to each well • 10) Exhaust 0.75% H3PO4 using Millipore vacuum station • 11) Add 60 μl 0.75% H3PO4 to each well of MAPH Filter Plate • 12) Transfer 30 μl sample per well from Assay Plate to corresponding well of MAPH Filter Plate • 13) Incubate 30 min at room temperature • 14) Wash each well of MAPH Filter Plates 3× with 200 μl 0.75% H3PO4 using Millipore vacuum station • 15) Add 20 μl Szintilation Liquid to each well of MAPH Filter Plate • 16) Seal MAPH Filter Plate • 17) Store MAPH Filter Plate 30 min in darkness • 18) Quantify radioactivity

The next assay concerns the target T1, viral kinase pUL-97 (Human cytomegalovirus, UniProt P16788).
T1 construct: The pUL-97 gene was cloned into a baculovirus vector; GST (glutathione S-transferase) (N); made in house; host or cells: Sf9 insect cells, baculovirus
Put plainly: UL97 kinase assay on Immobilon plate. It counts as biochemical. Put shortly:
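GST-pUL97 from baculovirus-infected Sf9 cells phosphorylated myelin basic protein with ATP (3 μM in the added assay buffer) and γ-[33P]ATP in Tris-HCl pH 7.5 buffer with MnCl2 and DTT. Reaction ran 1 h at 30 °C with graded compound concentrations and was stopped with EDTA. 33P incorporation was measured by scintillation after filter capture and phosphoric acid washes.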

A further assay has as its system HCMV strain AD169. Kind of assay: HCMV replication assay (reporter gene) in human foreskin fibroblasts. It counts as cell-based, human cytomegalovirus. As to conditions: Human betaherpesvirus 5; HCMV strain AD169 in HFF cells; read-out: IC50 in inhibiting replication of HCMV. On the procedure: To examine the effect of the pyrazine derivatives on HCMV replication, HCMV infections were performed in a cellular system.
Human foreskin fibroblasts (HFFs) were grown to subconfluency in 12 well plates and infected with 0.25 tissue culture infectious doses of HCMV AD-169 carrying a reporter gene (HCMV based antiviral assay). Pyrazine derivatives (stocks in DMSO (Dimethylsulfoxide)) were diluted in culture medium to the concentrations indicated and added to the cells immediately after virus adsorption. The success of infection (reporter gene expressing cells) and the lack of cytotoxicity of the compound (confluent cell layer) was monitored by microscopy. After seven days, cell layers were harvested, lysed and subjected to the automated fluorometry measurement of reporter gene activity. Each panel refers to a determination in quadruplicate (infection in duplicate, lysate preparation and measurement in duplicate).
(In general: In a reporter assay the amount or activity of a reporter protein is the signal.)

A further assay has as its target SRPK1 (Homo sapiens, UniProt Q96SB4). Kind of assay: General kinase assay protocol (33P-ATP, MBP substrate, filter plate): SRPK1. It counts as biochemical. As to conditions: inhibition at concentration 10 μM; read-out: Inhibitory effect on Target SRPK1. As to the method: as §1, §2, §3, §4
Setting [1] is: inhibition of UL 97 kinase activity, class by IC50 / % inhibition at 10 or 100 μM, read-out: Activity Class [A, B, C].
Where [2] appears, read: inhibition of UL 97 kinase activity, class by IC50 / % inhibition at 10 μM or 100 μM, read-out: Activity Class [A, B, C].

pIC50: −log10 of the molar value. Like-named read-outs stand apart in the source and are kept apart here. A value given as a limit tells only on which side of the number the result lay.

Chain of RICK (O43353 whole entry, species assumed): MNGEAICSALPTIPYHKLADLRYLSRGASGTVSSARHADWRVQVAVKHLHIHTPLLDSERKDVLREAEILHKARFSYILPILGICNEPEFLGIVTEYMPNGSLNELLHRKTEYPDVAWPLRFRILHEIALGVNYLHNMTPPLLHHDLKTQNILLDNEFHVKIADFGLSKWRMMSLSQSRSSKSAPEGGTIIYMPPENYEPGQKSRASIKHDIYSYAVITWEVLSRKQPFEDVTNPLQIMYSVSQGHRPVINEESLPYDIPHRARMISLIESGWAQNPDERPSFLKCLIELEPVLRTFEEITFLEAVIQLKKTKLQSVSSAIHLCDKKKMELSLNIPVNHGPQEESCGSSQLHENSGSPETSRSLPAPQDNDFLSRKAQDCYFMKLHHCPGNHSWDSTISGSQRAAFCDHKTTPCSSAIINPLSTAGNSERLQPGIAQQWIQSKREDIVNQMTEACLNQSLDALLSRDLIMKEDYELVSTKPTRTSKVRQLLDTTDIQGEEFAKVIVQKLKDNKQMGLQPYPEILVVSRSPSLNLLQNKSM
T1 sequence (P16788 whole entry): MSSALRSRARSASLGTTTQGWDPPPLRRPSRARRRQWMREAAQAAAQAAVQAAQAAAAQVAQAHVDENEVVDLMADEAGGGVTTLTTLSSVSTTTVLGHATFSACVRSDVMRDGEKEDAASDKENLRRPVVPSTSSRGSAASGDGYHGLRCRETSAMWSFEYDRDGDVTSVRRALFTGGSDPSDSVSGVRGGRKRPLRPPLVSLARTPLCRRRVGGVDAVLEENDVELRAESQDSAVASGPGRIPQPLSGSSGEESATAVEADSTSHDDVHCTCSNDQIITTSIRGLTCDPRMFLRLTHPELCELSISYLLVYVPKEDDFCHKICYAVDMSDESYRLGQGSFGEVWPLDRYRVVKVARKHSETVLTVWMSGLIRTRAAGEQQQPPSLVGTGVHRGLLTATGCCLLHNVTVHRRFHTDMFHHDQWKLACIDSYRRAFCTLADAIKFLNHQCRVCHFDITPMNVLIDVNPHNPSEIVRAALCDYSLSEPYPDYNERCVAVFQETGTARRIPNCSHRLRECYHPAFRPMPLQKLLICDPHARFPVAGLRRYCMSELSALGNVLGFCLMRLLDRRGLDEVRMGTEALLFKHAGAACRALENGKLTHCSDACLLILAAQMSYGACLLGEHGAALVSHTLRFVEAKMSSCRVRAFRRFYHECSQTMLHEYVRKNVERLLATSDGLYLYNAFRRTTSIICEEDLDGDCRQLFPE
Chain of SRPK1 (Q96SB4 whole entry, species assumed): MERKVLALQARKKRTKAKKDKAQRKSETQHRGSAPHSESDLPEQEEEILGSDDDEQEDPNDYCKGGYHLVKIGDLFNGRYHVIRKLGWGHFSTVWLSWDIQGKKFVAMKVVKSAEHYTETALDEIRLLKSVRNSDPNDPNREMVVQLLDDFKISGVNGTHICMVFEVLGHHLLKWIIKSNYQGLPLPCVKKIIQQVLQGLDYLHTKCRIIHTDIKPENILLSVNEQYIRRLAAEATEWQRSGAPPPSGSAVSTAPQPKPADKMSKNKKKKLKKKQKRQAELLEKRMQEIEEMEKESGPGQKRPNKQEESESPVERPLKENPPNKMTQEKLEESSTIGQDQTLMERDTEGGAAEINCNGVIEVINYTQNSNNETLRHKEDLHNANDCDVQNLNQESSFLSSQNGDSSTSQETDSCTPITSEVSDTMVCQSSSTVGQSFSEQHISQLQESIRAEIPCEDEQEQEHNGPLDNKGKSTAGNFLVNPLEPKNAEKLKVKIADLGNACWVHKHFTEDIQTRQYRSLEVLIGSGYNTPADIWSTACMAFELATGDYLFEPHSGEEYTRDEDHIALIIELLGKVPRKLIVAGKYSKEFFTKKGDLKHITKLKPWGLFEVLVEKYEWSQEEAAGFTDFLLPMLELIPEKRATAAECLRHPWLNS

With `COc1ccc(-c2cncc(Nc3cccc(C#N)c3)n2)cc1` [compound 388], the inhibition at 10 µM at RICK was above 50%.
Regarding `CC(=O)Nc1ccc(-c2cncc(Nc3ccc(Cl)cc3)n2)cc1` [compound 397], the inhibition at 10 µM on CDK9 was above 50%.
Consider `OCc1ccccc1-c1cncc(Nc2ccc(Cl)cc2)n1` [compound 420], for which the inhibition at 10 µM on RICK is above 50%.
As to `COc1cc(Nc2cncc(-c3ccc4ccccc4c3)n2)cc(OC)c1OC` [compound 402], the inhibition at 10 µM at RICK was above 75%.
The same measure, in the same setting: the result for `COc1cc(-c2cncc(Nc3ccc(F)c(Cl)c3)n2)cc(OC)c1OC` [compound 382] reads above 50%; that for `COc1cccc(-c2cnc(N)c(Nc3ccc4[nH]ccc4c3)n2)c1` [compound 432], above 75%.
On to `Oc1ccc(-c2cncc(Nc3cccc(C(F)(F)F)c3)n2)cc1` [compound 29, 4-[6-(3-Trifluoromethyl-phenylamino)-pyrazin-2-yl]-phenol], for which the pIC50 at viral kinase pUL-97 (setting [1]) was above 6.00. Besides, the inhibition at 10 µM at RICK is above 50%.
For the molecule `Cc1ccc(Nc2cncc(-c3ccc(F)cc3F)n2)cc1NS(C)(=O)=O` [compound 410], the inhibition at 10 µM on RICK was above 50%.
The same measure, in the same setting: the result for `Oc1cccc(-c2cncc(Nc3ccc(F)c(Cl)c3)n2)c1` [compound 417] reads above 50%; that for `CN(C)c1cccc(-c2cncc(Nc3cccc(C#N)c3)n2)c1` [compound 391], above 50%; that for `COc1cc(Nc2cncc(-c3ccc(N)cc3)n2)cc(OC)c1OC` [compound 398], above 75%.
For `CC(=O)Nc1cccc(-c2cncc(Nc3ccc4c(c3)OC(F)(F)C(F)(F)O4)n2)c1` [compound 403], the inhibition at 10 µM at CDK9 was above 50%.
`CN(C)CCNC(=O)c1cccc(-c2cncc(Nc3ccc(Cl)cc3)n2)c1` [Comp. 381]: the inhibition at 10 µM on RICK and on CDK9 was above 50% in each case.
Regarding `Oc1ccc(-c2cncc(Nc3ccccc3)n2)cc1` [compound 386], at RICK, the inhibition at 10 µM is above 75%.
Take `Oc1ccc(-c2cncc(Nc3ccc(F)c(Cl)c3)n2)cc1` [Comp. 11]: the pIC50 at viral kinase pUL-97 (setting [1]) is above 6.00. For the same molecule, the values for the inhibition at 10 µM at RICK and on CDK9 were above 50% and above 75%, respectively.
For the molecule `COc1cc(Nc2cncc(-c3cccc(F)c3)n2)cc(OC)c1OC` [Comp. 7, [6-(3-Fluoro-phenyl)-pyrazin-2-yl]-(3,4,5-trimethoxy-phenyl)-amine], at viral kinase pUL-97 (setting [1]), the pIC50 is 5.00 to 6.00. Also, the inhibition at 10 µM on RICK is above 50%.
`Nc1nc(O)c2ncn(COC(CO)CO)c2n1` [ganciclovir]: in the assay on HCMV strain AD169, the pIC50 was 5.40 to 5.52.
The molecule `CN(C)CCNC(=O)c1cccc(-c2cncc(Nc3ccc(C#N)c(Cl)c3)n2)c1` [Comp. 22, 3-[6-(3-Chloro-4-cyano-phenylamino)-pyrazin-2-yl]-N-(2-dimethylamino-ethyl)-benzamide] gave a pIC50 at viral kinase pUL-97 above 6.00. Also, the inhibition at 10 µM at SRPK1 was above 75%.
On to `CC(=O)Nc1ccc(-c2cncc(Nc3ccccc3)n2)cc1` [Comp. 401], for which the inhibition at 10 µM at SRPK1 is above 50%.
As for `Nc1cccc(-c2cncc(Nc3ccc(Cl)cc3)n2)c1` [compound 380], the inhibition at 10 µM at RICK was above 50%.
Turning to `COc1cc(Nc2cncc(-c3cccc(O)c3)n2)cc(OC)c1OC` [compound 423], the inhibition at 10 µM at RICK was above 50%.
Still for that read-out and setting: the value for `Nc1ncc(-c2ccc(O)cc2)nc1Nc1ccc2[nH]ccc2c1` [compound 428] was above 50%.
`COc1cccc(N2CCN(c3cncc(-c4ccc(C(F)(F)F)cc4)n3)CC2)c1` [compound 356, 4-(3-Methoxy-phenyl)-6′-(4-trifluoromethyl-phenyl)-3,4,5,6-tetrahydro-2H-[1,2′]bipyrazinyl]: the pIC50 on viral kinase pUL-97 (setting [2]) was 5.00 to 6.00.
As to `NC(=O)c1ccc(-c2cncc(N3CCN(c4ccncc4)CC3)n2)cc1` [Comp. 21, 4-(4-Pyridin-4-yl-3,4,5,6-tetrahydro-2H-[1,2′]bipyrazinyl-6′-yl)-benzamide], on viral kinase pUL-97 (setting [1]), the pIC50 was above 6.00.
Turning to `FC(F)(F)c1cc(-c2cncc(N3CCN(c4ccccc4)CC3)n2)cc(C(F)(F)F)c1` [compound 191, 6′-(3,5-Bis-trifluoromethyl-phenyl)-4-phenyl-3,4,5,6-tetrahydro-2H-[1,2′]bipyrazinyl], the pIC50 at viral kinase pUL-97 (setting [1]) is 4.00 to 5.00.
Consider `Cc1cccc(-c2cncc(N3CCN(c4ccccn4)CC3)n2)c1` [compound 327, 4-Pyridin-2-yl-6′-m-tolyl-3,4,5,6-tetrahydro-2H-[1,2′]bipyrazinyl], for which the pIC50 on viral kinase pUL-97 (setting [2]) is 4.00 to 5.00.
On the same count and under the same terms, the value for `Fc1ccc(N2CCN(c3cncc(-c4ccc(C(F)(F)F)cc4)n3)CC2)c(F)c1` [compound 210, 4-(2,4-Difluoro-phenyl)-6′-(4-trifluoromethyl-phenyl)-3,4,5,6-tetrahydro-2H-[1,2′]bipyrazinyl] was 5.00 to 6.00; that for `Cc1ccc(-c2cncc(N3CCN(c4ccc(F)cc4)CC3)n2)cc1` [compound 233, 4-(4-Fluoro-phenyl)-6′-p-tolyl-3,4,5,6-tetrahydro-2H-[1,2′]bipyrazinyl] was 5.00 to 6.00.
On to `COc1cc(-c2cncc(N3CCN(c4cccc5[nH]ccc45)CC3)n2)cc(OC)c1OC` [compound 37, 4-(1H-Indol-4-yl)-6′-(3,4,5-trimethoxy-phenyl)-3,4,5,6-tetrahydro-2H-[1,2′]bipyrazinyl], for which the pIC50 on viral kinase pUL-97 (setting [1]) is 4.00 to 5.00.
The same measure, in the same setting: the value for `Clc1cccc(N2CCN(c3cncc(-c4ccccc4Oc4ccccc4)n3)CC2)c1` [compound 185, 4-(3-Chloro-phenyl)-6′-(2-phenoxy-phenyl)-3,4,5,6-tetrahydro-2H-[1,2′]bipyrazinyl] was 4.00 to 5.00.
In the case of `COc1cccc(N2CCN(c3cncc(-c4ccoc4)n3)CC2)c1` [compound 324, 6′-Furan-3-yl-4-(3-methoxy-phenyl)-3,4,5,6-tetrahydro-2H-[1,2′]bipyrazinyl], at viral kinase pUL-97 (setting [2]), the pIC50 was 4.00 to 5.00.
Consider `Cc1cc(C)cc(-c2cncc(N3CCN(c4ccc(F)cc4)CC3)n2)c1` [compound 179, 6′-(3,5-Dimethyl-phenyl)-4-(4-fluoro-phenyl)-3,4,5,6-tetrahydro-2H-[1,2′]bipyrazinyl], for which the pIC50 at viral kinase pUL-97 (setting [1]) is 4.00 to 5.00.
As to `Brc1ccc(-c2cncc(N3CCN(c4cnccn4)CC3)n2)cc1` [compound 313, 6-(4-Bromo-phenyl)-2′,3′,5′,6′-tetrahydro-[2,1′;4′,2″]terpyrazine], the pIC50 on viral kinase pUL-97 (setting [2]) was above 6.00.
In the case of `COc1ccc(-c2cncc(N3CCN(c4cccc(C(F)(F)F)c4)CC3)n2)cc1OC` [compound 161, 6′-(3,4-Dimethoxy-phenyl)-4-(3-trifluoromethyl-phenyl)-3,4,5,6-tetrahydro-2H-[1,2′]bipyrazinyl], the pIC50 at viral kinase pUL-97 (setting [1]) was 4.00 to 5.00.

(Values after patent publication US20080194574A1, “Pyrazine Derivatives As Effective Compounds Against Infectious Diseases” (AXXIMA PHARMACEUTICALS AG, priority 2003, published 2008).)
